# Source: PubChem BioAssay (NCI)
#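 Briefly, cells in 96-well plates were exposed to five compound concentrations for 48 h, and endpoints were estimated by linear interpolation. GI50 = concentration required for 50% inhibition of growth. TGI is the concentration that stops growth completely.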
# Tests used:
# Test in all cases: NCI-60 cell line screen, 48 h
# SK-MEL-2 melanoma = system: SK-MEL-2 melanoma
# HOP-62 NSCLC = system: HOP-62 NSCLC
# HCC-2998 colon = system: HCC-2998 colon
# KM12 colon = system: KM12 colon
# TK-10 renal = system: TK-10 renal
# U251 CNS = system: U251 CNS
# MOLT-4 leukemia = system: MOLT-4 leukemia
# OVCAR-5 ovarian = system: OVCAR-5 ovarian
# MALME-3M melanoma = system: MALME-3M melanoma
# M14 melanoma = system: M14 melanoma
SMILES,GI50 (SK-MEL-2 melanoma) [µM],TGI (SK-MEL-2 melanoma) [µM],GI50 (HOP-62 NSCLC) [µM],TGI (HOP-62 NSCLC) [µM],GI50 (HCC-2998 colon) [µM],TGI (HCC-2998 colon) [µM],GI50 (KM12 colon) [µM],TGI (KM12 colon) [µM],GI50 (TK-10 renal) [µM],TGI (TK-10 renal) [µM],GI50 (U251 CNS) [µM],TGI (U251 CNS) [µM],GI50 (MOLT-4 leukemia) [µM],TGI (MOLT-4 leukemia) [µM],GI50 (OVCAR-5 ovarian) [µM],TGI (OVCAR-5 ovarian) [µM],GI50 (MALME-3M melanoma) [µM],TGI (MALME-3M melanoma) [µM],TGI (M14 melanoma) [µM],GI50 (M14 melanoma) [µM]
O=C(CN(/C=C/C(=O)C(F)(F)F)c1ccccc1)c1ccc(Cl)cc1,19.2,43.9,17.2,31.8,14.7,28.5,15.2,37.7,28,88.2,15.7,29.5,19.9,52.5,22.2,46.4,18.1,40.7,,
CCC(=O)C(C(=O)CC)c1c(OC(=O)c2ccccc2)ccc(O)c1C(=O)OC,,> 100,,> 100,,,,> 100,,> 100,,> 100,,> 100,,> 100,,,> 100,
CC/C(Cc1ccccc1)=C(/c1ccc(O)cc1)c1ccc(OCCN2CCCC2)cc1,2.04,3.84,1.9,3.58,1.54,2.98,1.94,3.74,1.75,3.34,1.69,3.19,1.57,3.63,1.86,3.93,,,3.64,1.8
Cc1ccc(O)c(NC2=C(Cl)C(=O)N(Cc3ccccc3)C2=O)c1,19,39,25.4,72.5,,,40.7,> 100,38.3,> 100,19.8,43.3,1.55,74.2,33.3,89.1,23,67.5,70.6,22.5
CC1(C)C(=O)C(=Cc2ccco2)C1=O,,> 100,,,,> 100,,> 100,,> 100,,> 100,,> 100,,> 100,,> 100,> 100,
COc1cc(NC(C)CCCNC(C)C)c2ncccc2c1OC (stereo not drawn),,,> 100,> 100,> 100,> 100,> 100,> 100,,,> 100,> 100,> 100,> 100,> 100,> 100,42.3,> 100,> 100,> 100
O=C1Nc2ccccc2/C1=C/c1cn(CC(O)Cn2cc(/C=C3\C(=O)Nc4ccccc43)c3ccccc32)c2ccccc12 (stereo not drawn),1.77,3.49,1.41,3.06,2.28,5.21,,,2.68,5.46,1.52,2.92,2.58,7.42,1.74,4.53,1.51,3.26,2.83,1.32
c1cc[c]([Sn]([O]c2cccc3cccnc23)([O]c2cccc3cccnc23)[c]2ccccc2)cc1,,,5.26,17.9,2.48,9.62,,,1.31,2.73,0.938,2.6,0.203,0.429,,,,,0.4,0.198
O=c1c2cccnc2ncn1CCCN1CCCC1,,> 100,,> 100,,,,> 100,,> 100,,> 100,,> 100,,> 100,,,> 100,
S=C(CSc1ccccc1)Nc1cccc2ccccc12,,74.5,,> 100,,,,> 100,,> 100,,> 100,,63.2,,> 100,,> 100,> 100,
O=C(NC(=O)c1cn(CCN2CCN(C(=O)NCCCCCCNC(=O)N3CCN(CCn4cc(C(=O)NC(=O)OCc5ccccc5)c(=O)[nH]c4=O)CC3)CC2)c(=O)[nH]c1=O)OCc1ccccc1,,,,> 100,,,,,,> 100,,> 100,,> 100,,> 100,,> 100,> 100,
Cc1cccc(Nc2cc(Cl)nc(SCC(=O)O)n2)c1C,,> 100,,> 100,,,,> 100,,> 100,,> 100,,> 100,,> 100,,> 100,> 100,
CC12OC(C(=O)C13CCC3)C1C(=O)c3ccc4c(ccc5ccccc54)c3C(=O)C12 (stereo not drawn),19.4,> 100,25.2,53.4,,,,,4.29,15,11.5,31.9,3.67,53.6,17.8,33.9,4.2,17.2,45.4,14.5
COC(=O)/C(=C/c1ccc(OC)cc1)C(C(=O)O)=C1CCCCC1,,> 100,,> 100,,,,> 100,,> 100,,> 100,,> 100,,> 100,,,> 100,
CCN(CC)c1ccc2nc3ccc(N=Nc4ccc(O)cc4)cc3[n+](-c3ccccc3)c2c1,2.65,> 100,2.68,15.1,4.51,16.4,3.7,16.4,3.15,> 100,7.81,> 100,,,20.8,73.7,,,4.79,2.29
C=C(CO)CC(/C=C(\C)CC/C=C(\C)CCl)OC(C)=O (stereo not drawn),,> 100,,> 100,,> 100,,> 100,,> 100,,> 100,,> 100,,> 100,,,> 100,
C1CC2=C(C1)C1=S(S2)SC2=C1CCC2,,> 100,,,,> 100,,> 100,,> 100,,> 100,,> 100,,> 100,,> 100,> 100,

SMILES,GI50 (SK-MEL-2 melanoma) [µM],TGI (SK-MEL-2 melanoma) [µM],GI50 (HOP-62 NSCLC) [µM],TGI (HOP-62 NSCLC) [µM],GI50 (HCC-2998 colon) [µM],TGI (HCC-2998 colon) [µM],GI50 (KM12 colon) [µM],TGI (KM12 colon) [µM],GI50 (TK-10 renal) [µM],TGI (TK-10 renal) [µM],GI50 (U251 CNS) [µM],TGI (U251 CNS) [µM],GI50 (MOLT-4 leukemia) [µM],TGI (MOLT-4 leukemia) [µM],GI50 (OVCAR-5 ovarian) [µM],TGI (OVCAR-5 ovarian) [µM],GI50 (MALME-3M melanoma) [µM],TGI (MALME-3M melanoma) [µM],TGI (M14 melanoma) [µM],GI50 (M14 melanoma) [µM]
CCN(CC)c1nc(NC2CCCCC2)c2nc(N(CC)CC)nc(NC3CCCCC3)c2n1,,,,> 100,,> 100,,> 100,,> 100,,> 100,,> 100,,> 100,,> 100,> 100,
COc1cc(-c2nccc3cc4c(cc23)OCO4)cc(OC)c1OC,3.08,> 100,7.55,> 100,8.68,51.7,2.27,> 100,5.64,> 100,4.86,> 100,,,24.9,> 100,26.9,> 100,23.2,3.36
CCN(CC)c1ccc(N=Nc2ccc(-c3nc4cccn(C)c-4n3)cc2)cc1,,35.3,,24.7,,,,24.9,,68.2,,16.3,,9.32,,26.3,,26.8,24.4,
O=C(Oc1ccccc1)C(Br)C(Br)c1ccccc1 (stereo not drawn),16.1,33.1,14.5,28.3,11.8,24.7,1.93,3.75,2.19,4.95,4.13,15.8,3.09,11.9,7,20.8,,,7.51,2.68
Nc1nc2c(ccc3ccccc32)s1,,,> 100,> 100,50.6,> 100,> 100,> 100,35.2,> 100,> 100,> 100,12.7,> 100,> 100,> 100,61.9,> 100,> 100,> 100
CNCCCNc1c2ccccc2nc2cccc([N+](=O)[O-])c12,,0.00798,,0.0129,,0.0173,,0.0677,,0.0327,,0.0519,,,,0.022,,0.00997,0.00846,
Clc1ccc(OCc2nnc3n2N=C(c2ccccc2)CS3)c(Cl)c1,,> 100,,,,> 100,,> 100,,> 100,,> 100,,> 100,,> 100,,> 100,,
Cc1cn2c(/C=N/N=C(N)N)c(-c3ccncc3)nc2s1,28.3,> 100,14.9,28.1,14.6,27.7,5.63,19.6,15,28.6,17.8,31.6,7.74,32.2,17.8,31.7,,,30.3,16.7
CC(C)(C)c1nc(-c2cccc(NS(=O)(=O)c3c(F)cccc3F)c2F)c(-c2ccnc(N)n2)s1,,,47.2,> 100,24.1,86.7,23.8,> 92.4,31.8,> 100,45.5,> 100,26.5,> 100,12.3,> 100,,,,
CCOc1ccc(C(C)=O)cc1NC(=O)c1cccc(-c2nnn(CC)n2)c1,0.44,24,0.39,18.1,1.71,> 100,,,14.3,50.3,0.458,16.7,0.682,> 100,9.34,> 100,11.4,63.9,> 100,0.396
C/C(O)=C(\N=O)C(=O)NCc1ccccc1,,> 100,,> 100,,> 100,,> 100,,> 100,,> 100,,> 100,,> 100,,> 100,,
COc1cccc(NC(=O)c2sc3nc4c(cc3c2N)C(O)CCC4)c1 (stereo not drawn),0.249,> 100,0.26,64.6,0.347,> 100,0.111,> 100,46.8,> 100,0.244,> 51.6,0.294,> 100,0.521,> 100,,,> 100,0.134
CCCCCCCCCCOC(=O)c1cc[n+](C)cc1,,49.1,,30.6,,,,31.3,,31.8,,29.1,,37.5,,26.8,,30.7,32.2,
COc1ccc(-c2n[nH]nc2-c2cc(OC)c3c(c2)OCO3)cc1,0.0184,20.3,< 0.0135,> 68.1,0.069,2.4,< 0.015,8.27,15.7,> 100,0.0359,15.6,0.0627,5.45,0.0665,> 100,,,10.5,0.014
Cc1ccccc1N=Nc1c(-c2ccccc2)nn(C(=O)CC(=O)Nc2cccc(Cl)c2)c1-c1ccccc1,,26,,> 31.6,,> 31.6,,,,,,19.6,,22.7,,> 31.6,,> 100,> 31.6,
CCCCN1C(=O)/C(=c2\sc3n(c2=O)C2C(NN=3)N(CC)C(=O)N2CC)c2ccccc21 (stereo not drawn),1.47,5.75,1.21,4.95,1.38,3.81,,,1.82,6.26,0.773,3.39,2.73,> 100,,,0.639,3.27,2.31,0.479
COc1cc2nc(-c3cccc4cccnc34)nc(NC3CCN(Cc4ccccc4)CC3)c2cc1OC,1.68,3.53,1.23,3.05,1.72,3.16,,,1.52,2.98,1.05,2.55,0.325,1.81,1.3,2.73,1.83,3.51,3.4,1.52
